From patent publication US20240239752A1, “BICYCLIC HETEROAROMATIC INHIBITORS OF KLK5” (BioCryst Pharmaceuticals, Inc., priority 2021, published 2024)

Biological target: T1, recombinant human KLK5 (Homo sapiens, UniProt Q9Y337)
T1 construct: purchased Novoprotein or R&D Systems C415 or 1108-SE
T1 sequence (Q9Y337 23-293): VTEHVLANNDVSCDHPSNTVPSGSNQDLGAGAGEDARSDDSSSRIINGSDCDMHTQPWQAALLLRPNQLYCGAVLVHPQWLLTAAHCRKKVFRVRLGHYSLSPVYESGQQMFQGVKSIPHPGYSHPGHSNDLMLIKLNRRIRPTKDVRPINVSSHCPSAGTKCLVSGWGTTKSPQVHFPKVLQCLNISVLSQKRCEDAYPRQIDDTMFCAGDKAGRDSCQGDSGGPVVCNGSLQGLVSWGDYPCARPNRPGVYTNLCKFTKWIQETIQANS
Test: Kallikrein (KLK) 5 enzymatic assay (Boc-VPR-AMC fluorogenic substrate)
Type: biochemical
Details: recombinant human KLK5 0.1 μg/well, Boc-VPR-AMC 100 μM, pH 7.5, room temperature, 1% DMSO; tested a minimum of three times
Method in brief: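 Fluorogenic rate assay at pH 7.5 (0.1 M NaH2PO4, 1% DMSO, room temperature), run at least three times per compound. Compound was premixed with 0.1 μg/well recombinant human KLK5 before adding 100 μM Boc-VPR-AMC; AMC release was read at ex 380/em 460 nm, and IC50 derived from inhibition of rate vs DMSO control.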

Row | Structure (SMILES) | IC50 [µM]
1 | Cc1cccc(OCc2nn(CC3CCOC3)c3ccc(-c4cccc5c(N)nccc45)cc23)c1CC(=O)O (stereo not shown) [Compound 94e, 2-(2-((5-(1-aminoisoquinolin-5-yl)-1-((tetrahydrofuran-3-yl)methyl)-1H-indazol-3-yl)methoxy)-6-methylphenyl)acetic acid] | < 1
2 | COc1ccc(CC(=O)O)c(OCc2c(C)oc3ccc(-c4cccc(C(=N)N)c4)cc23)c1 [7 g, 2-(2-((5-(3-carbamimidoylphenyl)-2-methylbenzofuran-3-yl)methoxy)-4-methoxyphenyl)acetic acid] | < 1
3 | Nc1nccc2c(-c3ccc4nn(CC5CNC5)c(COc5ccccc5CC(=O)O)c4c3)cccc12 [Compound 140b, 2-(2-((5-(1-aminoisoquinolin-5-yl)-2-(azetidin-3-ylmethyl)-2H-indazol-3-yl)methoxy)phenyl)acetic acid] | 1 to 10
4 | Nc1nccc2c(-c3ccc4c(c3)C(Oc3ccccc3CC(=O)O)CC43CCCC3)cccc12 (stereo not shown) [Compound 354f, 2-(2-((5′-(1-aminoisoquinolin-5-yl)-2′,3′-dihydrospiro[cyclopentane-1,1′-inden]-3′-yl)oxy)phenyl)acetic acid] | < 1
5 | Cc1ccc(OCc2nn(C3CCC3)c3ccc(-c4cccc5c(N)nccc45)cc23)c(CC(=O)O)c1 [Compound 165b, 2-(2-((5-(1-aminoisoquinolin-5-yl)-1-cyclobutyl-1H-indazol-3-yl)methoxy)-5-methylphenyl)acetic acid] | < 1
6 | COc1cc(-c2ccc3ccnc(N)c3c2)cc2c(COc3c(C)cccc3CC(=O)O)coc12 [Compound 237c, 2-(2-((5-(1-aminoisoquinolin-7-yl)-7-methoxybenzofuran-3-yl)methoxy)-3-methylphenyl)acetic acid] | > 10
7 | Nc1nccc2c(-c3ccc4c(c3)c(COc3c(CC(=O)O)cccc3C(=O)O)nn4C3CCC3)cccc12 [Compound 177a, 2-((5-(1-aminoisoquinolin-5-yl)-1-cyclobutyl-1H-indazol-3-yl)methoxy)-3-(carboxymethyl)benzoic acid] | 1 to 10
8 | COC(=O)N1CCC2(CC1)CC(Oc1cc(C)ccc1CC(=O)O)c1cc(-c3ccc4ccnc(N)c4c3)ccc12 (stereo not shown) [Compound 412c, 2-(2-((5-(1-aminoisoquinolin-7-yl)-1′-(methoxycarbonyl)-2,3-dihydrospiro[indene-1,4′-piperidin]-3-yl)oxy)-4-methylphenyl)acetic acid] | < 1
9 | CC(C)COC(=O)N1CC[C@@H](n2nc(COc3ccccc3CC(=O)O)c3cc(-c4cccc5c(N)nccc45)ccc32)C1 [Compound 365b, (R)-2-(2-((5-(1-aminoisoquinolin-5-yl)-1-(1-(isobutoxycarbonyl)pyrrolidin-3-yl)-1H-indazol-3-yl)methoxy)phenyl)acetic acid] | < 1
10 | Nc1nccc2c(-c3ccc4c(c3)c(COc3cc(F)ccc3CC(=O)O)nn4C3CCC3)cccc12 [Compound 168c, 2-(2-((5-(1-aminoisoquinolin-5-yl)-1-cyclobutyl-1H-indazol-3-yl)methoxy)-4-fluorophenyl)acetic acid] | < 1
11 | CCCCn1nc(COc2ccccc2CC(=O)O)c2cc(-c3cccc4c(N)nccc34)ccc21 [Compound 185b, 2-(2-((5-(1-aminoisoquinolin-5-yl)-1-butyl-1H-indazol-3-yl)methoxy)phenyl)acetic acid] | < 1
12 | N=C(N)c1cccc(-c2ccc3c(c2)c(COc2ccccc2CC(=O)O)nn3C2CCOC2)c1 (stereo not shown) [Compound 96g, 2-(2-((5-(3-carbamimidoylphenyl)-1-(tetrahydrofuran-3-yl)-1H-indazol-3-yl)methoxy)phenyl)acetic acid] | < 1
13 | Nc1nccc2ccc(-c3ccc4c(c3)C(Oc3ccccc3CC(=O)O)c3ccccc3-4)cc12 (stereo not shown) [Compound 209e, 2-(2-((2-(1-aminoisoquinolin-7-yl)-9H-fluoren-9-yl)oxy)phenyl)acetic acid] | < 1
14 | COc1cccc(OCc2nn(C3CCC3)c3ccc(-c4cccc5c(N)nccc45)cc23)c1CC(=O)O [Compound 173b, 2-(2-((5-(1-aminoisoquinolin-5-yl)-1-cyclobutyl-1H-indazol-3-yl)methoxy)-6-methoxyphenyl)acetic acid] | < 1
15 | Cc1cccc(OC2CC3(CCCCC3)c3ccc(-c4cccc5c(N)nccc45)cc32)c1CC(=O)O (stereo not shown) [Compound 377c, 2-(2-((5′-(1-aminoisoquinolin-5-yl)-2′,3′-dihydrospiro[cyclohexane-1,1′-inden]-3′-yl)oxy)-6-methylphenyl)acetic acid] | < 1
16 | COc1ccc(CC(=O)O)c(OC2c3cc(-c4cccc5c(N)nccc45)ccc3CC2(C)C)c1 (stereo not shown) [Compound 440c, 2-(2-((6-(1-aminoisoquinolin-5-yl)-2,2-dimethyl-2,3-dihydro-1H-inden-1-yl)oxy)-4-methoxyphenyl)acetic acid] | < 1
17 | CCOC(=O)N1CC[C@H](n2nc(COc3ccccc3CC(=O)O)c3cc(-c4ccc5ccnc(N)c5c4)ccc32)C1 [Compound 346b, (S)-2-(2-((5-(1-aminoisoquinolin-7-yl)-1-(1-(ethoxycarbonyl)pyrrolidin-3-yl)-1H-indazol-3-yl)methoxy)phenyl)acetic acid] | < 1

The next lines start with the values.

Row | IC50 [µM] | Structure (SMILES)
18 | < 1 | Nc1nccc2ccc(-c3ccc4c(c3)c(COc3ccccc3CC(=O)O)nn4-c3ccccc3)cc12 [Compound 201c, 2-(2-((5-(1-aminoisoquinolin-7-yl)-1-phenyl-1H-indazol-3-yl)methoxy)phenyl)acetic acid]
19 | > 10 | CC(C)n1nc(COc2ccccc2CC(=O)O)c2cc(-c3ccc4c(N)noc4c3)ccc21 [Compound 49a, 2-(2-((5-(3-aminobenzo[d]isoxazol-6-yl)-1-isopropyl-1H-indazol-3-yl)methoxy)phenyl)acetic acid]
20 | < 1 | CCCn1nc(COc2ccccc2CC(=O)O)c2cc(-c3cccc4c(N)nccc34)ccc21 [Compound 187b, 2-(2-((5-(1-aminoisoquinolin-5-yl)-1-propyl-1H-indazol-3-yl)methoxy)phenyl)acetic acid]
21 | < 1 | CC(C)n1nc(COc2ccccc2CC(=O)O)c2cc(-c3cccc(C(=N)N)c3O)ccc21 [Compound 262e, 2-(2-((5-(3-carbamimidoyl-2-hydroxyphenyl)-1-isopropyl-1H-indazol-3-yl)methoxy)phenyl)acetic acid]
22 | > 10 | CC(C)n1nc(COc2ccccc2CC(=O)O)c2cc(-c3ccc4[nH]nc(N)c4c3)ccc21 [Compound 32c, 2-(2-((3′-amino-1-isopropyl-1H, 1′H-[5,5′-biindazol]-3-yl)methoxy)phenyl)acetic acid]
23 | 1 to 10 | COc1ccc(C(=N)N)cc1-c1ccc2c(c1)c(COc1ccccc1CC(=O)O)nn2C(C)C [Compound 83e, 2-(2-((5-(5-carbamimidoyl-2-methoxyphenyl)-1-isopropyl-1H-indazol-3-yl)methoxy)phenyl)acetic acid]
24 | < 1 | Nc1nccc2ccc(-c3ccc4c(c3)c(COc3ccccc3CC(=O)O)nn4C3CC3)cc12 [Compound 60b, 2-(2-((5-(1-aminoisoquinolin-7-yl)-1-cyclopropyl-1H-indazol-3-yl)methoxy)phenyl)acetic acid]
25 | 1 to 10 | CC(C)n1nc(C(=O)Nc2ccccc2CC(=O)O)c2cc(-c3ccc4ccnc(N)c4c3)ccc21 [Compound 63d, 2-(2-(5-(1-aminoisoquinolin-7-yl)-1-isopropyl-1H-indazole-3-carboxamido)phenyl)acetic acid]
